Structures are written as SMILES.

For this test, the target named is T1, Adenosine receptor A3 (Rattus norvegicus, UniProt P28647).
T1 sequence (P28647 whole entry): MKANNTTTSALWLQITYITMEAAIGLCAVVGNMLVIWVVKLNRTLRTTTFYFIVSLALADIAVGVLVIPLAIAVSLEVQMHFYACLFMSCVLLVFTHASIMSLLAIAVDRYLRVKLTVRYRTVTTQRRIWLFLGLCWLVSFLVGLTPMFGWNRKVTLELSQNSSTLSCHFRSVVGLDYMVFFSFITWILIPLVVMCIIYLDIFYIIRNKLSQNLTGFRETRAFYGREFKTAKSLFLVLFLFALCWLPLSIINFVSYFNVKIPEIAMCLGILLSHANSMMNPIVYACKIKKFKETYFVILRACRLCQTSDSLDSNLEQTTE
Briefly: Displacement of [125I]AB-MECA from rat adenosine A3 receptor expressed in CHO cells. The class given is cell-based. Background: Loss of bound radioactivity is the signal in a displacement assay; it reports binding, not function.
Regarding `CCNC(=O)[C@H]1O[C@@H](n2cnc3c(NC(=O)Nc4ccc(S(=O)(=O)Nc5cc(C)on5)cc4)ncnc32)[C@H](O)[C@@H]1O`, the affinity, expressed as Ki, was 155 nM.
In turn, `CCNC(=O)[C@H]1O[C@@H](n2cnc3c(NC(=O)Nc4ccc(S(=O)(=O)Nc5ccccn5)cc4)ncnc32)[C@H](O)[C@@H]1O` displayed a Ki of 54.1 nM.
Under `CCNC(=O)[C@H]1O[C@@H](n2cnc3c(NC(=O)Nc4ccc(S(=O)(=O)Nc5ncccn5)cc4)ncnc32)[C@H](O)[C@@H]1O` stands 405 nM.

As usually defined, the Ki is a measure of affinity in units of concentration, obtained from inhibition or displacement.

The record behind these values is ChEMBL document CHEMBL1138998, “A topological function based on spectral moments for predicting affinity toward A3 adenosine receptors” (Bioorg Med Chem Lett, 2006).
